Test results as given in patent EP4098265A1 (priority 2020, dated 2021).
Values after ≈ are worked out from the molar mass of the structure shown. Where two headings read alike, the source gives them in different places.

Assays:
MRC-5 cells = conditions: human
HCoV-OC43 [1] = assay: Anti-HCoV-OC43 activity in HCT-8 cells (CPE method); type: cell-based
HCT-8 cells = conditions: human
HCoV-OC43 [2] = assay: Anti-HCoV-OC43 activity in MRC-5 cells (CPE method); type: cell-based; conditions: for IC50: Betacoronavirus 1, OC43, MRC5, 0 h
HCoV-229E = assay: Anti-HCoV-229E activity in Huh7.5 cells (CPE method); type: cell-based; conditions: Human coronavirus 229E
[3] = test system: coronaviruses (HCoV-229E and HCoV-OC43); assay: CPE experiment on coronaviruses, single components compared with carrimycin; type: cell-based; conditions: above CPE method
[4] = test system: Middle East Respiratory Syndrome Coronavirus (MERS-CoV); type: cell-based; conditions: in vitro
human coronavirus HKU1 = type: cell-based
PI3K/Akt/mTOR pathway = type: cell-based
2019-nCoV = assay: Anti-2019-nCoV activity in Vero E6 cells (CPE); conditions: in words
[5] = test system: human coronavirus NL63(HCoV-NL63); type: cell-based
[6] = test system: severe acute respiratory syndrome coronavirus SARS-CoV; type: cell-based; conditions: in vitro
[7] = 0h: administration at the same time of infection, read-out: IC50, First batch
[8] = 0h: administration at the same time of infection, read-out: IC50, Second batch
[9] = 2h: administration 2 hours after infection, read-out: IC50, First batch
[10] = 2h: administration 2 hours after infection, read-out: IC50, Second batch

Compound | TC50 (MRC-5 cells) [µg/mL] | IC50 (HCoV-OC43 [1]; Betacoronavirus 1, OC43, HCT-8 cells, 0h administration, read-out: IC50) [µg/mL] | inhibitory effect on the HCoV-OC43 (HCoV-OC43 [1]; HCT-8 cells, 0h administration, in words) | TC50 (HCT-8 cells) [µg/mL] | IC50 (HCoV-OC43 [2]) [µg/mL] | inhibitory effect on the HCoV-OC43 (HCoV-OC43 [2]; MRC-5 cells, 0h administration, in words) | IC50 (HCoV-229E; [7]) [µg/mL] | IC50 (HCoV-229E; [8]) [µg/mL] | IC50 (HCoV-229E; [9]) [µg/mL] | IC50 (HCoV-229E; [10]) [µg/mL] | inhibition activity compared with carrimycin [3] | inhibition activity compared with ribavirin or azithromycin [4] | inhibition activity compared with ribavirin or azithromycin (human coronavirus HKU1) | anti-inflammatory and immunomodulatory effects on PI3K/Akt/mTOR pathway (PI3K/Akt/mTOR pathway) | anti-2109-nCoV activity in vitro (2019-nCoV) | inhibition activity compared with ribavirin or azithromycin [5] | inhibition activity compared with ribavirin or azithromycin [6] | IC50 (HCoV-OC43 [1]; Betacoronavirus 1, OC43, HCT-8, 0 h) [µg/mL] | IC50 (HCoV-229E; 0h: administration at the same time of infection, read-out: IC50, Mean value) [µg/mL]
CC[C@H]1OC(=O)[C@H](C)[C@@H](O[C@H]2C[C@@](C)(OC)[C@@H](O)[C@H](C)O2)[C@H](C)[C@@H](O[C@@H]2O[C@H](C)C[C@H](N(C)C)[C@H]2O)[C@](C)(O)C[C@@H](C)CN(C)[C@H](C)[C@@H](O)[C@]1(C)O [Azithromycin] | 48.07 (≈ 64.2 µM) | > 100 | no inhibitory effect | >100 | > 11.1 | no inhibitory effect | 14.3 (≈ 19.1 µM) | 19.2 (≈ 25.7 µM) | 14.3 (≈ 19.1 µM) | 4.77 (≈ 6.37 µM) |  |  |  |  |  |  |  |  | 
CO[C@@H]1[C@@H](O[C@@H]2O[C@H](C)[C@@H](O[C@H]3C[C@@](C)(O)[C@@H](OC(=O)CC(C)C)[C@H](C)O3)[C@H](N(C)C)[C@H]2O)[C@@H](CC=O)C[C@@H](C)[C@@H](O[C@H]2CC[C@H](N(C)C)[C@@H](C)O2)/C=C/C=C/C[C@@H](C)OC(=O)C[C@H]1O [Isovalerylspiramycin I, isovalerylspiramycin I] |  |  |  |  |  |  |  |  |  |  | higher than the inhibition activity of carrimycin | higher than the inhibition activity of ribavirin or azithromycin | higher than the inhibition activity of ribavirin or azithromycin | inhibit the PI3K/Akt/mTOR pathway | anti-2109-nCoV activities in vitro | higher than the inhibition activity of ribavirin or azithromycin | higher than the inhibition activity of ribavirin or azithromycin |  | 
NC(=O)c1ncn([C@@H]2O[C@H](CO)[C@@H](O)[C@H]2O)n1 [RBV, Ribavirin] | >100 |  |  | >100 | 63.8 (≈ 261 µM) |  | 6.42 (≈ 26.3 µM) | 7.7 (≈ 31.5 µM) | 7.7 (≈ 31.5 µM) | 4.77 (≈ 19.5 µM) |  |  |  |  |  |  |  | 11.1 (≈ 45.5 µM) | 7.06 ± 0.91 (≈ 28.9 µM)
CCC(=O)O[C@@H]1CC(=O)O[C@H](C)C/C=C/C=C/[C@H](O[C@H]2CC[C@H](N(C)C)[C@@H](C)O2)[C@H](C)C[C@H](CC=O)[C@H](O[C@@H]2O[C@H](C)[C@@H](O[C@H]3C[C@@](C)(O)[C@@H](OC(=O)CC(C)C)[C@H](C)O3)[C@H](N(C)C)[C@H]2O)[C@H]1OC [isovalerylspiramycin III] |  |  |  |  |  |  |  |  |  |  | close to the inhibition activities of carrimycin | higher than the inhibition activity of ribavirin or azithromycin | higher than the inhibition activity of ribavirin or azithromycin | inhibit the PI3K/Akt/mTOR pathway | anti-2109-nCoV activities in vitro | higher than the inhibition activity of ribavirin or azithromycin | higher than the inhibition activity of ribavirin or azithromycin |  | 
isovalerylspiramycin II |  |  |  |  |  |  |  |  |  |  | close to the inhibition activities of carrimycin | higher than the inhibition activity of ribavirin or azithromycin | higher than the inhibition activity of ribavirin or azithromycin | inhibit the PI3K/Akt/mTOR pathway | anti-2109-nCoV activities in vitro | higher than the inhibition activity of ribavirin or azithromycin | higher than the inhibition activity of ribavirin or azithromycin |  | 
